Experimental findings from US12502374B2, “Composition for preventing, alleviating, or treating inflammatory disease containing isookanin or salt thereof as active ingredient” (BioSpectrum, Inc., priority 2020, dated 2025) are described below.

One experiment has as its target T1, TLR-2 (Homo sapiens, UniProt O60603).
T1 construct: host or cells: HEK-Blue TLR2 cell line
Put plainly: Chitin-induced TLR-2 activation, HEK-Blue TLR2 SEAP reporter cells. The format is cell-based. The settings on record: 1 hour pretreatment, then chitin for 12 hours; FIG. 3. The protocol:
The anti-inflammatory effect of isookanin by inhibition of TLR-2 activation was measured. The HEK-Blue™ TLR2 cell line (InvivoGen, USA) co-transfected with TLR-2 and SEAP (secreted embryonic alkaline phosphatase) reporter genes was used. The SEAP reporter gene contains transcription factors NF-kB and AP-1 binding sites, and thus when NF-kB and AP-1 are activated by TLR-2 activation, SEAP is produced and secreted extracellularly. Specifically, the HEK-Blue™ TLR2 cell line was cultured in DMEM containing 10% FBS, and then seeded in a 48-well plate at a density of 1×10^5 cells per well, and pretreated with isookanin for 1 hour. Next, the cells were treated with chitin (Carbosynth, USA) and cultured again for 12 hours. Here, chitin is a component of demodex and is known as a major trigger of inflammatory rosacea. […] 20 μl of the culture supernatant of the cells cultured for 12 hours was taken, mixed with 80 μl of QUANTI-Blue™ (InvivoGen, USA), and then incubated at 37° C. for 1 hour. The degree of TLR-2 activation was measured by comparing the degree of color development caused by the reaction between Quanti-Blue and extracellularly secreted SEAP, and the results are shown in FIG. 3.

The target in the next experiment is Janus kinase 1 (Homo sapiens, UniProt P23458). Put plainly: Janus kinase 1 activity inhibition, HTRF KinEASE-TK kit (TR-FRET). The class given is biochemical. The settings on record: FIG. 1. The protocol:
The effect of isookanin on the inhibition of Janus kinase 1 activity was measured using the HTRF KinEASE-TK kit (Cisbio, France). HTRF is a time-resolved fluorescence resonance energy transfer technology (TR-FRET) analysis method, which is applied to high-throughput screening (HTS) and is one of the methods widely used in drug development. From general cytokine measurement, enzyme activity, protein phosphorylation, protein-protein interaction, cAMP measurement, and the like can be measured by fluorescence through acceptor/donor reaction, and HTRF has an advantage in that, since measurement is carried out in two wavelength regions, it is possible to reduce interference from buffers and media. All components of the HTRF KinEase™-TK kit were handled according to the instructions. For kinases, the ability of a test substance to inhibit kinase activity is measured by allowing a kinase to react with an appropriate substrate in the presence or absence of a sample and capturing the phosphorylated substrate by a detection reagent. Briefly, the following two steps performed.
A kinase is allowed to react with an appropriate substrate in the presence and absence of a sample. Enzyme buffer is used as a control (−) instead of the sample, and the group treated with 100 nM of loxolitinib is used as a positive control. […]
Step 2. Fluorescence Detection […]

The next experiment has as its target T2, COX-2 (Homo sapiens, UniProt P35354).
T2 construct: BioVision
T2 sequence (P35354 18-604): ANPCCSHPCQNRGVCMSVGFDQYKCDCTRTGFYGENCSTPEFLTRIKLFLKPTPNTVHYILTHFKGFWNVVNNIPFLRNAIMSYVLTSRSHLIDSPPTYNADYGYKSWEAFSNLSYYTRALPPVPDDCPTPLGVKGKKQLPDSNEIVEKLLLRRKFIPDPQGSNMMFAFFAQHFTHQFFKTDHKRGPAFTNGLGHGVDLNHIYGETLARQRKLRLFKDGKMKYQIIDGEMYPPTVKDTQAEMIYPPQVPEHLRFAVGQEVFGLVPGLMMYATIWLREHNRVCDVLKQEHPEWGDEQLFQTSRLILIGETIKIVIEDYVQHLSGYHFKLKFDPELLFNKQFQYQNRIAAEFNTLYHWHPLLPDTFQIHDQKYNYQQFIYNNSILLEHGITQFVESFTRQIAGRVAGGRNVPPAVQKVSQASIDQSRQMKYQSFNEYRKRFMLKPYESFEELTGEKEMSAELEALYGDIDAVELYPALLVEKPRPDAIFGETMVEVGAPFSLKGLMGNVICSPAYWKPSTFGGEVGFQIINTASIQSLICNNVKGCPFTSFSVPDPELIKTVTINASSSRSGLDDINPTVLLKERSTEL
Put plainly: COX-2 enzyme activity, cyclooxygenase (COX) activity assay kit. As to conditions: 5, 10 and 20 ppm; FIG. 5. The class given is biochemical. The procedure: COX-2 enzyme inhibitory activity was measured using a cyclooxygenase (COX) activity assay kit (BioVision). 2 μl of COX probe, 4 μl of diluted COX cofactor, and varying concentrations (5, 10, and 20 ppm) of isookanin were added to the COX assay buffer included in the kit. As a negative control, DMSO was added instead of isookanin, and as a positive control, the COX-2 inhibitor celecoxib was added.

A further experiment concerns the target T3, recombinant kallikrein-5 (Homo sapiens, UniProt Q9Y337).
T3 construct: purchased R&D Systems, USA
T3 sequence (Q9Y337 23-293): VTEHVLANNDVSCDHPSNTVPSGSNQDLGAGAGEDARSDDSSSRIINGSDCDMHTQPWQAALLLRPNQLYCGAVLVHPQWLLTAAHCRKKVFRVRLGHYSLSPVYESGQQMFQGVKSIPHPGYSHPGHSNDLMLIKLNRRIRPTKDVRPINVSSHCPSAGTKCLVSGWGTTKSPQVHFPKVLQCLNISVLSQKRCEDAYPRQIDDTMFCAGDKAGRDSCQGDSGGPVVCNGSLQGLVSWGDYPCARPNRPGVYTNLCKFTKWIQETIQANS
As to the kind of experiment: Kallikrein-5 enzymatic activity, fluorescent substrate Boc-Val-Pro-Arg-AMC. The class given is biochemical. The settings on record: 10 and 20 ppm; FIG. 2. The procedure:
To measure the enzymatic activity of kallikrein-5 which is a trypsin-like proteolytic enzyme present in skin keratinocytes, recombinant kallikrein-5 (R&D Systems, USA) was allowed to react with the fluorescently labeled substrate Boc-Val-Pro-Arg-AMC (R&D Systems, USA), and the enzymatic activity was measured. 50 μl of 2 μg/ml recombinant kallikrein-5 was treated with different concentrations (10 and 20 ppm) of isookanin and then allowed to react at room temperature for 10 minutes, and then 50 μl of 800 μM kallikrein-5 substrate was added thereto, followed by measurement in kinetic mode at 380 nm/480 nm fluorescence for 5 minutes. As a positive control, the trypsin inhibitor Leupeptin (Sigma Aldrich, USA) was used, and as a negative control, non-treated recombinant kallikrein was used. For evaluation of the degree of activity, based on the value obtained by subtracting the lowest fluorescence value from the highest fluorescence value among the measurement values under each condition, the fluorescence value of the group treated with isookanin was compared with the fluorescence value of the group not treated with isookanin, and the results are shown in FIG. 2.

Molecules are shown by their SMILES.

T1 sequence (O60603 21-784): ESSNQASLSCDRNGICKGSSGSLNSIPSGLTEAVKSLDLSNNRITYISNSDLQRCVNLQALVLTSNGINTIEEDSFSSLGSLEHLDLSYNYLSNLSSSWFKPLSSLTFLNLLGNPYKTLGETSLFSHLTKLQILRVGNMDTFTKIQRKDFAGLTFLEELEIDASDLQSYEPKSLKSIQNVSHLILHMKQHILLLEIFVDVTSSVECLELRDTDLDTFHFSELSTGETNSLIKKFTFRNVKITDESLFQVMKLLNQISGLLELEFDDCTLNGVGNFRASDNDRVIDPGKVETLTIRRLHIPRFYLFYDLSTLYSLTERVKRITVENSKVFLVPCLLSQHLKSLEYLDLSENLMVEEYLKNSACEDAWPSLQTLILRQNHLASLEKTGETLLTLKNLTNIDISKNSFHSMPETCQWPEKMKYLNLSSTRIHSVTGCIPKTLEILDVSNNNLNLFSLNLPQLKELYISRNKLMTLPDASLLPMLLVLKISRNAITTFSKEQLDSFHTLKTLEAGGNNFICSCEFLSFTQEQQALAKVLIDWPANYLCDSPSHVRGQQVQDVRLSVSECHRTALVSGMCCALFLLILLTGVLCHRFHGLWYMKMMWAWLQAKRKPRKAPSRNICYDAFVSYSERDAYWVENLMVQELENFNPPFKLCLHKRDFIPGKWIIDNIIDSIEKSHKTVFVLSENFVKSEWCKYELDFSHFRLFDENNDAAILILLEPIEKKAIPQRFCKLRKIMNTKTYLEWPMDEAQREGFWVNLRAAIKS
Janus kinase 1, sequence (P23458 whole entry, species assumed): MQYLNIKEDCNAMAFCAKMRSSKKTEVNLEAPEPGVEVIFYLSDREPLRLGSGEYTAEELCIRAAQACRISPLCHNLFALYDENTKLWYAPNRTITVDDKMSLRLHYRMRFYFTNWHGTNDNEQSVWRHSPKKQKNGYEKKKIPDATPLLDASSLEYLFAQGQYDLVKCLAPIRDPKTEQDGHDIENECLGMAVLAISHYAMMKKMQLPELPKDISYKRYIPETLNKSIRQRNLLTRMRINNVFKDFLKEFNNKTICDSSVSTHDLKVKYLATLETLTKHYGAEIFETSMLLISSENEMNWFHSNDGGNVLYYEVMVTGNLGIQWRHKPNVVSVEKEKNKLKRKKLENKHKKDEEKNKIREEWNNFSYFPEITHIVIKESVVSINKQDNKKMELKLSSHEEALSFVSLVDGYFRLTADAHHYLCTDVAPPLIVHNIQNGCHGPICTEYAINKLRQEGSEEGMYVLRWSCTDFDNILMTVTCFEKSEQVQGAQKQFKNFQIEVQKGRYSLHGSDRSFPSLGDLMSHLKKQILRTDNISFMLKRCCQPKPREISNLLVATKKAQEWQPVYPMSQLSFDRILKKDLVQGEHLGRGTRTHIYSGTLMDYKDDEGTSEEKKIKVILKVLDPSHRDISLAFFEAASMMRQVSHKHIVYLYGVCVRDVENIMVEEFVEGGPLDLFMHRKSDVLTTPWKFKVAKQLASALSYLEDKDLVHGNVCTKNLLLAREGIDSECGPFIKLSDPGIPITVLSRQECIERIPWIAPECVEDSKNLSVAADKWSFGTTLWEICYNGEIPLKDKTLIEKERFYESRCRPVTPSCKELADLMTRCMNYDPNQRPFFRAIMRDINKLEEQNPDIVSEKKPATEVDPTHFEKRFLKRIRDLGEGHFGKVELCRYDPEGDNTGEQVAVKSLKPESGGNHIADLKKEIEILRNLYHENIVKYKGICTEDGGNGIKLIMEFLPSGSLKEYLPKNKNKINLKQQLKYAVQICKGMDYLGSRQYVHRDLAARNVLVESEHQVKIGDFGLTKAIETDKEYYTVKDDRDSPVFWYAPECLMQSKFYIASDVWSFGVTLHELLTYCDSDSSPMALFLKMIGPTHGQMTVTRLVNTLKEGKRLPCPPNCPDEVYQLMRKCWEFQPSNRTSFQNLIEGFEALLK

On to `O=C1C[C@@H](c2ccc(O)c(O)c2)Oc2c1ccc(O)c2O` [isookanin], for which the “inhibition of chitin-induced activation of TLR-2 signaling” value on TLR-2 is listed as “effectively inhibiting the chitin-induced activation of TLR-2 signaling”. Also, at Janus kinase 1, the “inhibition of Janus kinase 1 activity” value was “significantly inhibited”. In addition, on COX-2, the “inhibition of COX-2 enzyme activity” value is “inhibiting the activity of COX-2 enzyme in a concentration-dependent manner”. For the same compound, the “inhibition of kallikrein-5 activity” value at recombinant kallikrein-5 is reported as “inhibitory effect on kallikrein-5 activity in a concentration-dependent manner”.
